Tested on: mono-methyl arginine in RKO cells
Assay: RKO Methylation Assay (In Cell Western)
Format: cell-based
Conditions: Homo sapiens, 72 hours, percent activation, read-out: RGG ICW EC30
From the text: RKO adherent cells were purchased from ATCC (American Type Culture Collection), Manassas, Va., USA. DMEM/Glutamax medium, penicillin-streptomycin, heat inactivated fetal bovine serum, 0.05% trypsin and D-PBS were purchased from Life Technologies, Grand Island, N.Y., USA. Odyssey blocking buffer, 800CW goat anti-rabbit IgG (H+L) antibody, and Licor Odyssey infrared scanner were purchased from Licor Biosciences, Lincoln, Nebr., USA. Mono-methyl arginine antibody was purchased from Cell Signaling Technology, Danvers, Mass., USA. Methanol was purchased from VWR, Franklin, Mass., USA. 10% Tween 20 was purchased from KPL, Inc., Gaithersburg, Md., USA. DRAQ5 was purchased from Biostatus Limited, Leicestershire, UK.
RKO adherent cells were maintained in growth medium (DMEM/Glutamax medium supplemented with 10% v/v heat inactivated fetal bovine serum and 100 units/mL penicillin-streptomycin) and cultured at 37° C. under 5% CO2.
Cell Treatment, in Cell Western (ICW) for Detection of Mono-Methyl Arginine and DNA Content.
RKO cells were seeded in assay medium at a concentration of 20,000 cells per mL to a poly-D-lysine coated 384 well culture plate (BD Biosciences 356697) with 50 μL per well. Compound (100 nL) from a 96-well source plate was added directly to 384 well cell plate. Plates were incubated at 37° C., 5% CO2 for 72 hours. After three days of incubation, plates were brought to room temperature outside of the incubator for ten minutes and blotted on paper towels to remove cell media. 50 μL of ice cold 100% methanol was added directly to each well and incubated for 30 min at room temperature. After 30 min, plates were transferred to a Biotek EL406 plate washer and washed 2 times with 100 μL per well of wash buffer (1×PBS). Next 60 μL per well of Odyssey blocking buffer (Odyssey Buffer with 0.1% Tween 20 (v/v)) were added to each plate and incubated 1 hour at room temperature. Blocking buffer was removed and 20 μL per well of primary antibody was added (mono-methyl arginine diluted 1:200 in Odyssey buffer with 0.1% Tween 20 (v/v)) and plates were incubated overnight (16 hours) at 4° C. Plates were washed 5 times with 100 μL per well of wash buffer. Next 20 μL per well of secondary antibody was added (1:200 800CW goat anti-rabbit IgG (H+L) antibody, 1:1000 DRAQ5 (Biostatus limited) in Odyssey buffer with 0.1% Tween 20 (v/v)) and incubated for 1 hour at room temperature. The plates were washed 5 times with 100 μL per well wash buffer then 2 times with 100 μL per well of water. Plates were allowed to dry at room temperature then imaged on the Licor Odyssey machine which measures integrated intensity at 700 nm and 800 nm wavelengths. Both 700 and 800 channels were scanned.
First, the ratio for each well was determined by:
Each plate included fourteen control wells of DMSO only treatment (minimum activation) as well as fourteen control wells for maximum activation treated with 20 μM of a reference compound. The average of the ratio values for each control type was calculated and used to determine the percent activation for each test well in the plate. Reference compound was serially diluted three-fold in DMSO for a total of nine test concentrations, beginning at 20 μM. Percent activation was determined and EC30 curves were generated using triplicate wells per concentration of compound.

CN(CCN)Cc1n[nH]c2cccc(OCc3ccccc3)c12 [Compound 1]
EC30: ≤ 3000 nM

Source: patent US9943504B2, “Arginine methyltransferase inhibitors and uses thereof” (Epizyme, Inc., priority 2013, dated 2018)
